What was measured:
Type in all cases: functional
Echinochloa crus-galli = test: Herbicidal activity against Echinochloa crus-galli (barnyard grass) assessed as killing at 6 kg/ha by post-emergent activity assay
Bipolaris oryzae [1] = test: Fungicidal activity against Bipolaris oryzae assessed as inhibition at 10 ppm measured after 96 hr by agar growth technique
Setaria viridis = test: Herbicidal activity against Setaria viridis (green foxtail) assessed as killing at 6 kg/ha by post-emergent activity assay
Triticum aestivum = test: Herbicidal activity against Triticum aestivum (wheat) assessed as killing at 6 kg/ha by post-emergent activity assay
Aspergillus niger [2] = test: Fungicidal activity against Aspergillus niger assessed as inhibition at 1000 ppm measured after 96 hr by agar growth technique
Abutilon theophrasti = test: Herbicidal activity against Abutilon theophrasti (velvetleaf) assessed as killing at 6 kg/ha by post-emergent activity assay
Bipolaris oryzae [3] = test: Fungicidal activity against Bipolaris oryzae assessed as inhibition at 1000 ppm measured after 96 hr by agar growth technique
Bipolaris oryzae [4] = test: Fungicidal activity against Bipolaris oryzae assessed as inhibition at 100 ppm measured after 96 hr by agar growth technique
Sorghum halepense = test: Herbicidal activity against Sorghum halepense (Johnson grass) assessed as killing at 6 kg/ha by post-emergent activity assay
Aspergillus niger [5] = test: Fungicidal activity against Aspergillus niger assessed as inhibition at 100 ppm measured after 96 hr by agar growth technique
Aspergillus niger [6] = test: Fungicidal activity against Aspergillus niger assessed as inhibition at 10 ppm measured after 96 hr by agar growth technique

## Cc1ccc(NC2=NN(C(=O)COc3ccccc3Cl)C(C)(C)S2)cc1
Echinochloa crus-galli
  Activity: 20%
Bipolaris oryzae [1]
  inhibition at 10 ppm: 32%
Setaria viridis
  Activity: 50%
Triticum aestivum
  Activity: 30%
Aspergillus niger [2]
  inhibition at 1000 ppm: 63%
Abutilon theophrasti
  Activity: 50%
Bipolaris oryzae [3]
  inhibition at 1000 ppm: 56%
Bipolaris oryzae [4]
  inhibition at 100 ppm: 44%
Sorghum halepense
  Activity: 50%
Aspergillus niger [5]
  inhibition at 100 ppm: 52%
Aspergillus niger [6]
  inhibition at 10 ppm: 49%

## Cc1ccc(NC2=NN(C(=O)COc3cccc(C)c3)C(C)(C)S2)cc1
Echinochloa crus-galli
  Activity: 60%
Bipolaris oryzae [1]
  inhibition at 10 ppm: 48%
Setaria viridis
  Activity: 20%
Triticum aestivum
  Activity: 15%
Aspergillus niger [2]
  inhibition at 1000 ppm: 75%
Abutilon theophrasti
  Activity: 30%
Bipolaris oryzae [3]
  inhibition at 1000 ppm: 71%
Bipolaris oryzae [4]
  inhibition at 100 ppm: 63%
Sorghum halepense
  Activity: 50%
Aspergillus niger [5]
  inhibition at 100 ppm: 68%
Aspergillus niger [6]
  inhibition at 10 ppm: 54%

## CC1(C)SC(Nc2ccc(Cl)cc2)=NN1C(=O)COc1ccccc1Cl
Echinochloa crus-galli
  Activity: 50%
Bipolaris oryzae [1]
  inhibition at 10 ppm: 39%
Setaria viridis
  Activity: 50%
Triticum aestivum
  Activity: 10%
Aspergillus niger [2]
  inhibition at 1000 ppm: 62%
Abutilon theophrasti
  Activity: 40%
Bipolaris oryzae [3]
  inhibition at 1000 ppm: 58%
Bipolaris oryzae [4]
  inhibition at 100 ppm: 48%
Sorghum halepense
  Activity: 30%
Aspergillus niger [5]
  inhibition at 100 ppm: 50%
Aspergillus niger [6]
  inhibition at 10 ppm: 49%

## Cc1cccc(OCC(=O)N2N=C(Nc3ccccc3)SC2c2ccccc2)c1 (stereo unspecified)
Echinochloa crus-galli
  Activity: 60%
Bipolaris oryzae [1]
  inhibition at 10 ppm: 39%
Setaria viridis
  Activity: 60%
Triticum aestivum
  Activity: 0%
Aspergillus niger [2]
  inhibition at 1000 ppm: 67%
Abutilon theophrasti
  Activity: 60%
Bipolaris oryzae [3]
  inhibition at 1000 ppm: 61%
Bipolaris oryzae [4]
  inhibition at 100 ppm: 49%
Sorghum halepense
  Activity: 60%
Aspergillus niger [5]
  inhibition at 100 ppm: 54%
Aspergillus niger [6]
  inhibition at 10 ppm: 38%

## COc1ccc(NC2=NN(C(=O)COc3ccccc3Cl)C(c3ccccc3)S2)cc1 (stereo unspecified)
Echinochloa crus-galli
  Activity: 100%
Bipolaris oryzae [1]
  inhibition at 10 ppm: 44%
Setaria viridis
  Activity: 100%
Triticum aestivum
  Activity: 10%
Aspergillus niger [2]
  inhibition at 1000 ppm: 65%
Abutilon theophrasti
  Activity: 100%
Bipolaris oryzae [3]
  inhibition at 1000 ppm: 63%
Bipolaris oryzae [4]
  inhibition at 100 ppm: 58%
Sorghum halepense
  Activity: 90%
Aspergillus niger [5]
  inhibition at 100 ppm: 59%
Aspergillus niger [6]
  inhibition at 10 ppm: 44%

## Cc1ccc(NC2=NN(C(=O)COc3cccc(C)c3)C(c3ccccc3)S2)cc1 (stereo unspecified)
Echinochloa crus-galli
  Activity: 30%
Bipolaris oryzae [1]
  inhibition at 10 ppm: 46%
Setaria viridis
  Activity: 20%
Triticum aestivum
  Activity: 10%
Aspergillus niger [2]
  inhibition at 1000 ppm: 70%
Abutilon theophrasti
  Activity: 60%
Bipolaris oryzae [3]
  inhibition at 1000 ppm: 68%
Bipolaris oryzae [4]
  inhibition at 100 ppm: 61%
Sorghum halepense
  Activity: 50%
Aspergillus niger [5]
  inhibition at 100 ppm: 62%
Aspergillus niger [6]
  inhibition at 10 ppm: 47%

## COc1ccc(NC2=NN(C(=O)COc3cccc(C)c3)C(c3ccccc3)S2)cc1 (stereo unspecified)
Echinochloa crus-galli
  Activity: 100%
Bipolaris oryzae [1]
  inhibition at 10 ppm: 50%
Setaria viridis
  Activity: 100%
Triticum aestivum
  Activity: 10%
Aspergillus niger [2]
  inhibition at 1000 ppm: 74%
Abutilon theophrasti
  Activity: 100%
Bipolaris oryzae [3]
  inhibition at 1000 ppm: 72%
Bipolaris oryzae [4]
  inhibition at 100 ppm: 65%
Sorghum halepense
  Activity: 100%
Aspergillus niger [5]
  inhibition at 100 ppm: 67%
Aspergillus niger [6]
  inhibition at 10 ppm: 51%

## Cc1ccc(NC2=NN(C(=O)COc3ccccc3Cl)C(c3ccccc3)S2)cc1 (stereo unspecified)
Echinochloa crus-galli
  Activity: 50%
Bipolaris oryzae [1]
  inhibition at 10 ppm: 39%
Setaria viridis
  Activity: 50%
Triticum aestivum
  Activity: 30%
Aspergillus niger [2]
  inhibition at 1000 ppm: 65%
Abutilon theophrasti
  Activity: 40%
Bipolaris oryzae [3]
  inhibition at 1000 ppm: 60%
Bipolaris oryzae [4]
  inhibition at 100 ppm: 50%
Sorghum halepense
  Activity: 60%
Aspergillus niger [5]
  inhibition at 100 ppm: 52%
Aspergillus niger [6]
  inhibition at 10 ppm: 43%

## Cc1cccc(OCC(=O)N2N=C(Nc3ccc(Cl)cc3)SC2c2ccccc2)c1 (stereo unspecified)
Echinochloa crus-galli
  Activity: 60%
Bipolaris oryzae [1]
  inhibition at 10 ppm: 38%
Setaria viridis
  Activity: 50%
Triticum aestivum
  Activity: 15%
Aspergillus niger [2]
  inhibition at 1000 ppm: 62%
Abutilon theophrasti
  Activity: 50%
Bipolaris oryzae [3]
  inhibition at 1000 ppm: 58%
Bipolaris oryzae [4]
  inhibition at 100 ppm: 48%
Sorghum halepense
  Activity: 60%
Aspergillus niger [5]
  inhibition at 100 ppm: 49%
Aspergillus niger [6]
  inhibition at 10 ppm: 40%

## O=C(COc1ccccc1Cl)N1N=C(Nc2ccc(Cl)cc2)SC1c1ccccc1 (stereo unspecified)
Echinochloa crus-galli
  Activity: 60%
Bipolaris oryzae [1]
  inhibition at 10 ppm: 78%
Setaria viridis
  Activity: 60%
Triticum aestivum
  Activity: 25%
Aspergillus niger [2]
  inhibition at 1000 ppm: 92%
Abutilon theophrasti
  Activity: 50%
Bipolaris oryzae [3]
  inhibition at 1000 ppm: 92%
Bipolaris oryzae [4]
  inhibition at 100 ppm: 80%
Sorghum halepense
  Activity: 40%
Aspergillus niger [5]
  inhibition at 100 ppm: 83%
Aspergillus niger [6]
  inhibition at 10 ppm: 78%

## Cc1cccc(OCC(=O)N2N=C(Nc3ccc(Cl)cc3)SC2(C)C)c1
Echinochloa crus-galli
  Activity: 50%
Bipolaris oryzae [1]
  inhibition at 10 ppm: 38%
Setaria viridis
  Activity: 50%
Triticum aestivum
  Activity: 10%
Aspergillus niger [2]
  inhibition at 1000 ppm: 63%
Abutilon theophrasti
  Activity: 40%
Bipolaris oryzae [3]
  inhibition at 1000 ppm: 59%
Bipolaris oryzae [4]
  inhibition at 100 ppm: 47%
Sorghum halepense
  Activity: 60%
Aspergillus niger [5]
  inhibition at 100 ppm: 54%
Aspergillus niger [6]
  inhibition at 10 ppm: 48%

## CC1(C)SC(Nc2ccccc2)=NN1C(=O)COc1ccccc1Cl
Echinochloa crus-galli
  Activity: 60%
Bipolaris oryzae [1]
  inhibition at 10 ppm: 31%
Setaria viridis
  Activity: 50%
Triticum aestivum
  Activity: 20%
Aspergillus niger [2]
  inhibition at 1000 ppm: 56%
Abutilon theophrasti
  Activity: 40%
Bipolaris oryzae [3]
  inhibition at 1000 ppm: 52%
Bipolaris oryzae [4]
  inhibition at 100 ppm: 42%
Sorghum halepense
  Activity: 70%
Aspergillus niger [5]
  inhibition at 100 ppm: 44%
Aspergillus niger [6]
  inhibition at 10 ppm: 51%

## O=C(COc1ccccc1Cl)N1N=C(Nc2ccccc2)SC1c1ccccc1 (stereo unspecified)
Echinochloa crus-galli
  Activity: 50%
Bipolaris oryzae [1]
  inhibition at 10 ppm: 75%
Setaria viridis
  Activity: 50%
Triticum aestivum
  Activity: 20%
Aspergillus niger [2]
  inhibition at 1000 ppm: 92%
Abutilon theophrasti
  Activity: 50%
Bipolaris oryzae [3]
  inhibition at 1000 ppm: 90%
Bipolaris oryzae [4]
  inhibition at 100 ppm: 80%
Sorghum halepense
  Activity: 60%
Aspergillus niger [5]
  inhibition at 100 ppm: 82%
Aspergillus niger [6]
  inhibition at 10 ppm: 77%

## CC1(C)SC(Nc2ccccc2)=NN1C(=O)COc1ccc(Cl)cc1
Echinochloa crus-galli
  Activity: 50%
Bipolaris oryzae [1]
  inhibition at 10 ppm: 59%
Setaria viridis
  Activity: 40%
Triticum aestivum
  Activity: 0%
Aspergillus niger [2]
  inhibition at 1000 ppm: 78%
Abutilon theophrasti
  Activity: 40%
Bipolaris oryzae [3]
  inhibition at 1000 ppm: 76%
Bipolaris oryzae [4]
  inhibition at 100 ppm: 67%
Sorghum halepense
  Activity: 60%
Aspergillus niger [5]
  inhibition at 100 ppm: 69%
Aspergillus niger [6]
  inhibition at 10 ppm: 45%

## COc1ccc(NC2=NN(C(=O)COc3cccc(C)c3)C(C)(C)S2)cc1
Echinochloa crus-galli
  Activity: 100%
Bipolaris oryzae [1]
  inhibition at 10 ppm: 36%
Setaria viridis
  Activity: 100%
Triticum aestivum
  Activity: 10%
Aspergillus niger [2]
  inhibition at 1000 ppm: 69%
Abutilon theophrasti
  Activity: 100%
Bipolaris oryzae [3]
  inhibition at 1000 ppm: 65%
Bipolaris oryzae [4]
  inhibition at 100 ppm: 54%
Sorghum halepense
  Activity: 100%
Aspergillus niger [5]
  inhibition at 100 ppm: 58%
Aspergillus niger [6]
  inhibition at 10 ppm: 43%

## COc1ccc(NC2=NN(C(=O)COc3ccccc3Cl)C(C)(C)S2)cc1
Echinochloa crus-galli
  Activity: 100%
Bipolaris oryzae [1]
  inhibition at 10 ppm: 31%
Setaria viridis
  Activity: 100%
Triticum aestivum
  Activity: 10%
Aspergillus niger [2]
  inhibition at 1000 ppm: 65%
Abutilon theophrasti
  Activity: 100%
Bipolaris oryzae [3]
  inhibition at 1000 ppm: 60%
Bipolaris oryzae [4]
  inhibition at 100 ppm: 53%
Sorghum halepense
  Activity: 100%
Aspergillus niger [5]
  inhibition at 100 ppm: 56%
Aspergillus niger [6]
  inhibition at 10 ppm: 37%

From ChEMBL document CHEMBL3044591, “Biological Activity of Some 2-Arylamino-4-aryloxyacetyl-2-1, 3, 4-thiadiazolidine Derivatives” (1994)
